Several values for one entry are separate records, joined by “and”; a condition that tells them apart may be missing. Equal entries are not always repeated. Inconclusive results and toxic doses are left out.
System: BDF1 mice, P1081 chloroleukemia ip, survival T/C
Test: NCI In Vivo Anticancer Drug Screen. Data for tumor model P1081 Chloroleukemia (intraperitoneal) in B6D2F1 (BDF1) mice
Conditions: endpoint: mean survival time, higher = longer survival
Method: The antitumor activity of compounds was measured in mice bearing transplantable tumors. Survival or tumor size were measured and the results are expressed as the measurement made in the treated group (T) divided by the measurement made in the vehicle treated control group (C). The tumor model used in this assay is P1081 Chloroleukemia (intraperitoneal) in B6D2F1 (BDF1) mice

[1] = dose: 4.0 mg/kg/injection, schedule: Q01DX Z (ip), vehicle: carboxymethylcellulose (CMC)
[2] = dose: 8.0 mg/kg/injection, schedule: Q01DX Z (ip), vehicle: carboxymethylcellulose (CMC)
[3] = dose: 50.0 mg/kg/injection, schedule: Q01DX Z (ip), vehicle: carboxymethylcellulose (CMC)
[4] = dose: 0.5 mg/kg/injection, schedule: Q01DX Z (ip), vehicle: saline
[5] = dose: 1.0 mg/kg/injection, schedule: Q01DX Z (ip), vehicle: saline
[6] = dose: 125.0 mg/kg/injection, schedule: Q01DX010 (ip), vehicle: saline
[7] = dose: 250.0 mg/kg/injection, schedule: Q01DX010 (ip), vehicle: saline
[8] = dose: 500.0 mg/kg/injection, schedule: Q01DX010 (ip), vehicle: saline

Nc1nc(SCc2ccccc2)c2[nH]cnc2n1
T/C (dose: 4.7 mg/kg/injection, schedule: Q01DX Z (ip), vehicle: carboxymethylcellulose (CMC)): 91 % of control | T/C (dose: 8.0 mg/kg/injection, schedule: Q01DX010 (ip), vehicle: saline): 110 % of control and 116 % of control | T/C (dose: 9.4 mg/kg/injection, schedule: Q01DX Z (ip), vehicle: carboxymethylcellulose (CMC)): 90 % of control | T/C (dose: 16.0 mg/kg/injection, schedule: Q01DX010 (ip), vehicle: saline): 116 % of control and 105 % of control | T/C (dose: 18.75 mg/kg/injection, schedule: Q01DX Z (ip), vehicle: carboxymethylcellulose (CMC)): 100 % of control | T/C (dose: 32.0 mg/kg/injection, schedule: Q01DX010 (ip), vehicle: saline): 110 % of control and 122 % of control | T/C (dose: 64.0 mg/kg/injection, schedule: Q01DX010 (ip), vehicle: saline): 105 % of control

CN(C)/N=N/c1nc[nH]c1C(N)=O
T/C (dose: 25.0 mg/kg/injection, schedule: Q01DX010 (ip), vehicle: saline): 120 % of control | T/C (dose: 50.0 mg/kg/injection, schedule: Q01DX010 (ip), vehicle: saline): 120 % of control | T/C (dose: 100.0 mg/kg/injection, schedule: Q01DX010 (ip), vehicle: saline): 160 % of control and 177 % of control | T/C (dose: 200.0 mg/kg/injection, schedule: Q01DX010 (ip), vehicle: saline): 122 % of control

NC(=O)N(CCCl)N=O
T/C (dose: 1.0 mg/kg/injection, schedule: Q01DX Z (ip), vehicle: carboxymethylcellulose (CMC)): 97 % of control | T/C [1]: 95 % of control | T/C [2]: 106 % of control | T/C (dose: 16.0 mg/kg/injection, schedule: Q01DX Z (ip), vehicle: carboxymethylcellulose (CMC)): 108 % of control

CC(=O)Nc1ccc2nc3ccc(NC(C)=O)cc3[n+](-c3ccccc3)c2c1
T/C (dose: 12.5 mg/kg/injection, schedule: Q01DX Z (ip), vehicle: carboxymethylcellulose (CMC)): 103 % of control | T/C (dose: 25.0 mg/kg/injection, schedule: Q01DX Z (ip), vehicle: carboxymethylcellulose (CMC)): 109 % of control | T/C [3]: 111 % of control

C[C@]12CC[C@H](OC3OC(CO)C(O)C(O)C3O)C[C@H]1CC[C@@H]1[C@@H]2CC[C@]2(C)[C@@H](C3=CCOC3=O)CC[C@]12O (stereo partly specified)
T/C [4]: 94 % of control | T/C [5]: 96 % of control | T/C (dose: 31.0 micrograms/kg/injection, schedule: Q01DX Z (ip), vehicle: saline): 101 % of control | T/C (dose: 63.0 micrograms/kg/injection, schedule: Q01DX Z (ip), vehicle: saline): 98 % of control | T/C (dose: 125.0 micrograms/kg/injection, schedule: Q01DX Z (ip), vehicle: saline): 104 % of control | T/C (dose: 250.0 micrograms/kg/injection, schedule: Q01DX Z (ip), vehicle: saline): 104 % of control | T/C (dose: 500.0 micrograms/kg/injection, schedule: Q01DX Z (ip), vehicle: saline): 110 % of control

Cc1cc(N(CCCl)CCCl)ccc1N=Nc1ccccc1C(=O)O
T/C (dose: 5.0 mg/kg/injection, schedule: Q01DX010 (ip), vehicle: saline): 105 % of control | T/C (dose: 7.5 mg/kg/injection, schedule: Q01DX Z (ip), vehicle: carboxymethylcellulose (CMC)): 101 % of control | T/C (dose: 10.0 mg/kg/injection, schedule: Q01DX010 (ip), vehicle: saline): 110 % of control and 95 % of control | T/C (dose: 15.0 mg/kg/injection, schedule: Q01DX Z (ip), vehicle: carboxymethylcellulose (CMC)): 104 % of control | T/C (dose: 20.0 mg/kg/injection, schedule: Q01DX010 (ip), vehicle: saline): 110 % of control and 90 % of control | T/C (dose: 30.0 mg/kg/injection, schedule: Q01DX Z (ip), vehicle: carboxymethylcellulose (CMC)): 104 % of control | T/C (dose: 40.0 mg/kg/injection, schedule: Q01DX010 (ip), vehicle: saline): 110 % of control

N#CCSc1ncnc2nc[nH]c12
T/C (dose: 6.25 mg/kg/injection, schedule: Q01DX Z (ip), vehicle: carboxymethylcellulose (CMC)): 119 % of control | T/C (dose: 15.0 mg/kg/injection, schedule: Q01DX010 (ip), vehicle: saline): 110 % of control | T/C (dose: 30.0 mg/kg/injection, schedule: Q01DX010 (ip), vehicle: saline): 105 % of control and 95 % of control | T/C [3]: 101 % of control | T/C (dose: 60.0 mg/kg/injection, schedule: Q01DX010 (ip), vehicle: saline): 110 % of control

N[C@@H](Cc1ccc(N(CCCl)CCCl)cc1)C(=O)O
T/C (dose: 0.31 mg/kg/injection, schedule: Q01DX Z (ip), vehicle: saline): 159 % of control | T/C (dose: 0.63 mg/kg/injection, schedule: Q01DX Z (ip), vehicle: saline): 206 % of control | T/C (dose: 1.25 mg/kg/injection, schedule: Q01DX Z (ip), vehicle: saline): 193 % of control | T/C (dose: 2.5 mg/kg/injection, schedule: Q01DX Z (ip), vehicle: saline): 229 % of control | T/C (dose: 5.0 mg/kg/injection, schedule: Q01DX Z (ip), vehicle: saline): 217 % of control | T/C (dose: 10.0 mg/kg/injection, schedule: Q01DX Z (ip), vehicle: saline): 107 % of control

CSCS(=O)C[C@H](CO)NC(=O)/C=C/c1c(C)[nH]c(=O)[nH]c1=O (stereo partly specified)
T/C (dose: 0.06 mg/kg/injection, schedule: Q01DX Z (ip), vehicle: saline): 92 % of control | T/C (dose: 0.12 mg/kg/injection, schedule: Q01DX Z (ip), vehicle: saline): 93 % of control | T/C (dose: 0.25 mg/kg/injection, schedule: Q01DX Z (ip), vehicle: saline): 107 % of control and 97 % of control | T/C [4]: 92 % of control and 102 % of control | T/C [5]: 90 % of control

O=c1cn[nH]c(=O)[nH]1
T/C [1]: 102 % of control | T/C [2]: 93 % of control | T/C (dose: 62.5 mg/kg/injection, schedule: Q01DX010 (ip), vehicle: saline): 95 % of control | T/C [6]: 95 % of control | T/C (dose: 125.0 mg/kg/injection, schedule: Q01DX Z (ip), vehicle: carboxymethylcellulose (CMC)): 123 % of control and 94 % of control | T/C [7]: 90 % of control and 95 % of control | T/C (dose: 250.0 mg/kg/injection, schedule: Q01DX Z (ip), vehicle: carboxymethylcellulose (CMC)): 117 % of control | T/C [8]: 110 % of control and 100 % of control | T/C (dose: 500.0 mg/kg/injection, schedule: Q01DX Z (ip), vehicle: carboxymethylcellulose (CMC)): 117 % of control | T/C (dose: 1000.0 mg/kg/injection, schedule: Q01DX Z (ip), vehicle: carboxymethylcellulose (CMC)): 97 % of control

S=P(N1CC1)(N1CC1)N1CC1
T/C (dose: 0.37 mg/kg/injection, schedule: Q01DX Z (ip), vehicle: saline): 98 % of control | T/C (dose: 0.75 mg/kg/injection, schedule: Q01DX Z (ip), vehicle: saline): 96 % of control | T/C (dose: 1.5 mg/kg/injection, schedule: Q01DX Z (ip), vehicle: saline): 109 % of control

Cn1cc(NC(=O)c2cc(NC(=O)CN=C(N)N)cn2C)cc1C(=O)NCCC(=N)N
T/C (dose: 6.3 mg/kg/injection, schedule: Q01DX Z (ip), vehicle: saline): 102 % of control | T/C (dose: 12.5 mg/kg/injection, schedule: Q01DX Z (ip), vehicle: saline): 100 % of control | T/C (dose: 25.0 mg/kg/injection, schedule: Q01DX Z (ip), vehicle: saline): 92 % of control

CCN(CC)c1ccc2cc3ccc(=[N+](CC)CC)cc-3oc2c1
T/C (dose: 0.31 mg/kg/injection, schedule: Q01DX Z (ip), vehicle: carboxymethylcellulose (CMC)): 101 % of control | T/C (dose: 0.63 mg/kg/injection, schedule: Q01DX Z (ip), vehicle: carboxymethylcellulose (CMC)): 98 % of control | T/C (dose: 1.25 mg/kg/injection, schedule: Q01DX Z (ip), vehicle: carboxymethylcellulose (CMC)): 108 % of control | T/C (dose: 2.5 mg/kg/injection, schedule: Q01DX Z (ip), vehicle: carboxymethylcellulose (CMC)): 105 % of control and 114 % of control | T/C (dose: 5.0 mg/kg/injection, schedule: Q01DX Z (ip), vehicle: carboxymethylcellulose (CMC)): 96 % of control

CCOC(N)=O
T/C [6]: 110 % of control and 100 % of control | T/C (dose: 125.0 mg/kg/injection, schedule: Q01DX Z (ip), vehicle: saline): 95 % of control and 102 % of control | T/C [7]: 90 % of control and 100 % of control | T/C (dose: 250.0 mg/kg/injection, schedule: Q01DX Z (ip), vehicle: saline): 100 % of control and 101 % of control | T/C [8]: 90 % of control and 100 % of control | T/C (dose: 500.0 mg/kg/injection, schedule: Q01DX Z (ip), vehicle: saline): 92 % of control

CS(=O)(=O)OCC(O)C(O)COS(C)(=O)=O (stereo unspecified)
T/C (dose: 94.0 mg/kg/injection, schedule: Q01DX Z (ip), vehicle: saline): 86 % of control | T/C (dose: 188.0 mg/kg/injection, schedule: Q01DX Z (ip), vehicle: saline): 107 % of control | T/C (dose: 375.0 mg/kg/injection, schedule: Q01DX Z (ip), vehicle: saline): 95 % of control | T/C (dose: 750.0 mg/kg/injection, schedule: Q01DX Z (ip), vehicle: saline): 122 % of control | T/C (dose: 1500.0 mg/kg/injection, schedule: Q01DX Z (ip), vehicle: saline): 166 % of control | T/C (dose: 3000.0 mg/kg/injection, schedule: Q01DX Z (ip), vehicle: saline): 173 % of control
